Literature values, collected in patent publication US20140030308A1, “IMPLANTS AND PROCEDURES FOR PROMOTING AUTOLOGOUS STEM CELL GROWTH” (priority 2012, published 2014).

Settings: general statement used to time administration before stent placement

half-life: about 8 hours
SMILES: c1cc(CN2CCCNCCNCCCNCC2)ccc1CN1CCCNCCNCCCNCC1 [Prelixafor, 1,1′-[1,4-phenylenebis(methylene)]bis-1,4,8,11-tetraazacyclotetradecane]
